From patent US20240376138A1, “Crystal Forms, Preparation Method And Application Of Aryl Phosphine Oxide Compound” (Chengdu Di'Ao Jiuhong Pharmaceutical Factory, priority 2021, published 2024) come the findings set out here.

Like-named read-outs stand apart in the source and are kept apart here.

Series [1] concerns PC9 cells expressing EGFR-Del19. Put plainly: Cell anti-proliferation experiment 2, PC9 cells (SRB). It counts as cell-based. As to conditions: Homo sapiens, PC-9, 72 h, read-out: EGFR-Del 19 GI50. As for the experimental part:
(§1) • 1. […] Test information: • 2.1. Cell information: PC9 cells carried EGFR Del19 mutation, and the rest of mutant cells were constructed from PC9 cells according to the conventional stable cell strain construction method. • PC9-cell lines expressing EGFR mutation • EGFR-Del19 • EGFR-T790M/Del19 • EGFR-C797S/T790M/Del19 • 2.2. Test method:
(§2) The test compounds were diluted by 5 times each time with an appropriate concentration as an initial concentration of the test, and totally diluted into 6 concentration gradients. […] SRB (Sulforhodamine B) detection method was used, and the optical density value of each well was read by a microplate reader at 490 nm wavelength.
(§3) The optical density of the cells at the drug action of 0 was set as a Tz value representing the value of the cells at the time that the drug was added. The optical density value of the cells after the solvent control DMSO acted for 72 hours was set as a C value. The optical density of the cells on which the test compounds acted for 72 hours was set as a Ti value. The response of the cells to the drug was calculated according to a method proposed by the U.S. NIH-NCI (National Institutes of Health-National Institute of Cancer): When Ti is more than or equal to Tz, the value was [(Ti−Tz)/(C−Tz)]×100; and when Ti is less than Tz, the value was [(Ti−Tz)/Tz]×100.

Series [2] has as its system PC9 cells expressing EGFR-C797S/T790M/Del19. The description is as above. As to conditions: Homo sapiens, PC-9, 72 h, read-out: EGFR-C797S/T790M/Del19 GI50. It counts as cell-based. The method, then: as §1, §2, §3
The subject of series [3] is PC9 cells expressing EGFR-T790M/Del19. The series is described as above. It counts as cell-based. As to conditions: Homo sapiens, PC-9, 72 h, read-out: EGFR-T790M/Del19 GI50. The method, then: as §1, §2, §3
The target of series [4] is T1, BaF3 cells expressing EML-4-ALK-L1196M (Homo sapiens, UniProt Q9UM73, L1196M, cells depend on it).
T1 construct: fused on or other part: Q9HC35 (Echinoderm microtubule-associated protein-like 4)
T1 sequence (Q9UM73 whole entry L1196M, the tested form may be a part): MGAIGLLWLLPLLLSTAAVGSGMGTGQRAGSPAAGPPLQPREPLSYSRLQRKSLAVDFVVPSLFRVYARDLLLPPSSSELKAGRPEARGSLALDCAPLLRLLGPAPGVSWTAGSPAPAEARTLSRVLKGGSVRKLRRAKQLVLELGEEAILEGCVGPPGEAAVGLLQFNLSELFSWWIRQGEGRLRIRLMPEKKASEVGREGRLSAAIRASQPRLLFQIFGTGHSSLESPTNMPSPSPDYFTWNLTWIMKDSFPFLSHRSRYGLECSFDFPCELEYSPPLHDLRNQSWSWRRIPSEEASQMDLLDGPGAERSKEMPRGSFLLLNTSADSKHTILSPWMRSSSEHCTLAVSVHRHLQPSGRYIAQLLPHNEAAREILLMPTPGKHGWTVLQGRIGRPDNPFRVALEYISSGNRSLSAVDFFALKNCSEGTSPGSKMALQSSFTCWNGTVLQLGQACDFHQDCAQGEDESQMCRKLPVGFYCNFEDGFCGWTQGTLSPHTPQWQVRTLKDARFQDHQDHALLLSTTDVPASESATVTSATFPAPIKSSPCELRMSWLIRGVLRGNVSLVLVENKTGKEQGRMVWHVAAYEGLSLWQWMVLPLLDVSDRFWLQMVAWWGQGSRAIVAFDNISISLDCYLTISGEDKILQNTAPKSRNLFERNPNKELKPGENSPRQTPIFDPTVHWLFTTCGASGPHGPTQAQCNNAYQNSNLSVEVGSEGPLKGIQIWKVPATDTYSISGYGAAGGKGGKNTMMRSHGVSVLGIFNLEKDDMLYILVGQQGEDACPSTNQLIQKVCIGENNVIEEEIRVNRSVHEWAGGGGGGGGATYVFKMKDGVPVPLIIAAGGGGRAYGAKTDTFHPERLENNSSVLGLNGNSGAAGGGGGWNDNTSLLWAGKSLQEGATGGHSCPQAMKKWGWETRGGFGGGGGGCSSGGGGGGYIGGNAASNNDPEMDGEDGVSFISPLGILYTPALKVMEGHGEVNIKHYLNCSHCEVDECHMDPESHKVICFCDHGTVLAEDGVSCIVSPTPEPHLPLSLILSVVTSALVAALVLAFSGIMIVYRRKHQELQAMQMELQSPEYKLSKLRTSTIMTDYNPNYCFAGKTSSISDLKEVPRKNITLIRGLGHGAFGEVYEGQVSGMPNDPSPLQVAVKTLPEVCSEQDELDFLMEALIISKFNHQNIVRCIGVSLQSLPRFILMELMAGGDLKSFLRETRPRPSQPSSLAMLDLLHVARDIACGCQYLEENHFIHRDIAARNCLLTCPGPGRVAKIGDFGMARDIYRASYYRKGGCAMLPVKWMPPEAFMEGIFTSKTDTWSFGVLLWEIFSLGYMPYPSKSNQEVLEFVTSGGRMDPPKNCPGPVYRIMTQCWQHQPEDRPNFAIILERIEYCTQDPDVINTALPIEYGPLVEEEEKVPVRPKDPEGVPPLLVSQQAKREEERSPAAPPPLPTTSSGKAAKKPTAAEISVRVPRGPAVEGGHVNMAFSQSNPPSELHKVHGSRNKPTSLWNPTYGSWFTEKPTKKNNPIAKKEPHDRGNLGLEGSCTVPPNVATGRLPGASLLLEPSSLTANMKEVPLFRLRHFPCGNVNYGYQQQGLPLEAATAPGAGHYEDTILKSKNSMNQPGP
Briefly: Cell anti-proliferation experiment 3, BaF3 cells with ALK fusion and mutation (CellTiter-Glo). As to conditions: 3 days, CTG, read-out: EML-4-ALK-L1196M IC50. It counts as cell-based. The source says: (§4) • 1. […] Test information: • 2.1. Cell information: Cell lines containing ALK mutations in BaF3 were from WuXiAppTec: • Ba/F3-cell lines expressing ALK gene fusion and mutation • Ba/F3-EML-4-ALK-WT • Ba/F3-EML-4-ALK-L 1196M • 2.2.
(§5) Test results: The IC50 values of the compound DA and the control compound against BaF3 cells expressing EML-4-ALK-WT and EML-4-ALK-L1196M are shown in Table 22. • 4.
(In general: In ATP-based viability assays light output follows the ATP content of the culture.)

For series [5], the target named is Ba/F3 cells expressing EGFR-C797S/T790M/L858R (Homo sapiens, UniProt P00533, T790M/C797S/L858R, cells depend on it). Briefly: Cell anti-proliferation experiment 1, BaF3 cells expressing EGFR mutation (CellTiter-Glo). It counts as cell-based. As to conditions: read-out: EGFR-C797S/T790M/L858R IC50.
Protocol: (§6) Test purpose: to detect the effect of the test compounds on the proliferation of cell lines containing EGFR mutations in BaF3 cells • 2. […] Cell information: Cell lines containing EGFR mutations in BaF3 were from WuXiAppTec: • BaF3-cell lines expressing EGFR mutation • EGFR-T790M/Del19 • EGFR-C797S/Del19 • EGFR-T790M/L858R • EGFR-C797S/L858R • EGFR-C797S/T790M/L858R • EGFR-C797S/T790M/Del19 • EGFR-WT wild-type cell lines • 2.2. Test method • Day 0: Cells were seeded in a plate. • a. An ultraviolet lamp of a biological safety cabinet was turned on and countdown was started for 30 minutes. • b. A medium was preheated in a 37° C. water bath. • c. After the ultraviolet irradiation was finished, the biological safety cabinet was opened. The pre-heated medium, PBS, and the like, were wiped with alcohol and placed in the biological safety cabinet. • d. The cells were removed from an incubator, blown to a uniform cell suspension in the biological safety cabinet and counted. • e. Based on the cell counting results, the cell suspension was adjusted to a density of 3,000 cells per well and 50 microliters per well, and seeded in 384-well plates. • f. The cells after seeding were incubated in a 5% CO2 incubator at 37° C. for 3 hours. • g. Compounds were added to the cell plates using Tecan (liquid workstation). • Day 3: the cell plate added with the compounds and CTG (CellTiter-Glo chemiluminescence cell activity assay reagent) were equilibrated at room temperature, 25 μl of CTG was added to each well, centrifuged at 1,000 rpm for 1 minute, and shaken for 1-2 minutes. And centrifuging for 1 minute at 1,000 rpm again, the cell plates were allowed to settle for 10 minutes to detect a signal value in Envision. The IC50 of each compound was calculated by computer fitting with XL-Fit analysis software (the IC50 of the compound on the cell activity inhibition could be obtained by reading the concentrations of the corresponding compounds at 500 inhibition rate). Inhibition rate % C (reading value of the control group without drug−reading value of the sample)/reading value of the control group without drug×100. • 3.
Series [6] addresses Ba/F3 cells expressing EGFR-C797S/L858R (Homo sapiens, UniProt P00533, C797S/L858R, cells depend on it). The series is described as above. It counts as cell-based. As to conditions: 3 days, CTG, read-out: EGFR-C797S/L858R IC50.
Protocol: (§7) Test purpose: to detect the effect of the test compounds on the proliferation of cell lines containing EGFR mutations in BaF3 cells • 2. Test information: • 2.1. Cell information: Cell lines containing EGFR mutations in BaF3 were from WuXiAppTec: • BaF3-cell lines expressing EGFR mutation • EGFR-T790M/Del19 • EGFR-C797S/Del19 • EGFR-T790M/L858R • EGFR-C797S/L858R • EGFR-C797S/T790M/L858R • EGFR-C797S/T790M/Del19 • EGFR-WT wild-type cell lines • 2.2. Test method • Day 0: Cells were seeded in a plate. • a. An ultraviolet lamp of a biological safety cabinet was turned on and countdown was started for 30 minutes. • b. A medium was preheated in a 37° C. water bath. • c. After the ultraviolet irradiation was finished, the biological safety cabinet was opened. […] The cells were removed from an incubator, blown to a uniform cell suspension in the biological safety cabinet and counted. • e. […] The IC50 of each compound was calculated by computer fitting with XL-Fit analysis software (the IC50 of the compound on the cell activity inhibition could be obtained by reading the concentrations of the corresponding compounds at 500 inhibition rate). Inhibition rate % C (reading value of the control group without drug−reading value of the sample)/reading value of the control group without drug×100. • 3.
Series [7] is described as follows: Comparative experiment of hygroscopicity (Chinese Pharmacopoeia 2020). It counts as physicochemical. The source says: The description of hygroscopic characteristics and the definition of hygroscopic weight gain are as follows: • Deliquescence: absorbs sufficient amount of water to form a liquid; • Very hygroscopic: the weight gain by hygroscopy is not less than 15%; • Hygroscopic: the weight gain by hygroscopy is less than 15% but not less than 2%; • Slightly hygroscopic: the weight gain by hygroscopy is less than 2% but not less than 0.2%; and
Not or almost not hygroscopic: the weight gain by hygroscopy is less than 0.2% from hygroscopicity.

For series [8], the target named is Ba/F3 cells expressing EGFR-C797S/Del19 (Homo sapiens, UniProt P00533, C797S, cells depend on it, form not given). Briefly: Cell anti-proliferation experiment 1, BaF3 cells expressing EGFR mutation (CellTiter-Glo). It counts as cell-based. As to conditions: 3 days, CTG, read-out: EGFR-C797S-Del19 IC50.
Series [9] addresses Ba/F3 cells expressing EGFR-C797S/T790M/Del19 (Homo sapiens, UniProt P00533, T790M/C797S, cells depend on it, form not given). The series is described as above. As to conditions: read-out: EGFR-C797S/T790M/Del19 IC50. It counts as cell-based.
Series [10] has as its target T2, BaF3 cells expressing EML-4-ALK-WT (Homo sapiens, UniProt Q9UM73).
T2 construct: fused on or other part: Q9HC35 (Echinoderm microtubule-associated protein-like 4)
Briefly: Cell anti-proliferation experiment 3, BaF3 cells with ALK fusion (CellTiter-Glo). It counts as cell-based. As to conditions: 3 days, CTG, read-out: EML-4-ALK-WT IC50.
Text: as §4, §5

Another series is described as follows: Solubility test. It counts as physicochemical. As to conditions: Solution with pH = 6.8, 25° C.±2° C.
Series [11] has as its target Ba/F3 cells expressing EGFR-T790M/Del19 (Homo sapiens, UniProt P00533, T790M, cells depend on it, form not given). Briefly: Cell anti-proliferation experiment 1, BaF3 cells expressing EGFR mutation (CellTiter-Glo). As to conditions: 3 days, CTG, read-out: EGFR-T790M/Del19 IC50. It counts as cell-based.
In series [12] the target is Ba/F3 cells expressing EGFR-T790M/L858R (Homo sapiens, UniProt P00533, T790M/L858R, cells depend on it). The description is as above. It counts as cell-based. As to conditions: 3 days, CTG, read-out: EGFR-T790M/L858R IC50.
Chain of Ba/F3 cells expressing EGFR-T790M/L858R (P00533 whole entry T790M/L858R): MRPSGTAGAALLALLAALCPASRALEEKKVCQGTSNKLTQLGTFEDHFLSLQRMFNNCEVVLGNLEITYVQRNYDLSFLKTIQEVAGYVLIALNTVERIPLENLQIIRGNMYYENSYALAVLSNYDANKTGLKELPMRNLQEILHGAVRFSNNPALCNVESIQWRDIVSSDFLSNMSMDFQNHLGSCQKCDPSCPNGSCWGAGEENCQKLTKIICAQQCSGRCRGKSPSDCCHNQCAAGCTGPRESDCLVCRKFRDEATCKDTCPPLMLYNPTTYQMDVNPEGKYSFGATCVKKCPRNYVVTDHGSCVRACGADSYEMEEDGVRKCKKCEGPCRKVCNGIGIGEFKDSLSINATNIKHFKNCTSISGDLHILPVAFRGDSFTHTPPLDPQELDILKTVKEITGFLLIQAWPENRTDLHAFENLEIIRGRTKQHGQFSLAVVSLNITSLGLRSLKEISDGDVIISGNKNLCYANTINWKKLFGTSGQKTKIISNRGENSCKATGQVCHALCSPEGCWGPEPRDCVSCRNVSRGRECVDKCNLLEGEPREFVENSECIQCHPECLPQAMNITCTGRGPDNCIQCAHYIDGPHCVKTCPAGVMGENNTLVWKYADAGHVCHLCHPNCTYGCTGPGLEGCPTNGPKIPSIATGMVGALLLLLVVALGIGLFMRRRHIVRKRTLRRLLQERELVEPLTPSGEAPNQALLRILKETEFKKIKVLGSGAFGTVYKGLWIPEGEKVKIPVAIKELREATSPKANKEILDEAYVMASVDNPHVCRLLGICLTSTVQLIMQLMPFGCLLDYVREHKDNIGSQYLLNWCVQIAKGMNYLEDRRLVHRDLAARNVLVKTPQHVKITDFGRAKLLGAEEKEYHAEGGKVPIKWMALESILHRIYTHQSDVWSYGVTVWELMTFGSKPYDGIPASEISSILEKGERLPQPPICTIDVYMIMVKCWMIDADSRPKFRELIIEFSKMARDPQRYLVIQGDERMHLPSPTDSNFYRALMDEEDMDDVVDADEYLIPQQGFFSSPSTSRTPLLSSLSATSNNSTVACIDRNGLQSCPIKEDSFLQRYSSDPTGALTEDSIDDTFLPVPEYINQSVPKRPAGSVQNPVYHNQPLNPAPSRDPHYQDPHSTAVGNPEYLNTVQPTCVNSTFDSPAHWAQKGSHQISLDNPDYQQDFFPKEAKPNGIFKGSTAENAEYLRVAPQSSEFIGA
Protocol: as §7
For series [13], the target named is T3, BaF3 EML-4-ALK-L1196M cell line (Homo sapiens, UniProt Q9UM73, L1196M, cells depend on it).
T3 construct: fused on or other part: Q9HC35 (Echinoderm microtubule-associated protein-like 4)
T3 sequence (Q9UM73 whole entry L1196M, the tested form may be a part): as the sequence (Q9UM73 whole entry L1196M, the tested form may be a part) above
Briefly: Cell anti-proliferation experiment 4 (CCK-8). As to conditions: BaF3 EML-4-ALK-L1196M cells, 72 hours. It counts as cell-based. The method, then: • 1. […] Test materials • BaF3 EML-4-ALK-L1196M cell line, brand: KYinno, article number: KC-0102 • Cell Counting Kit-8 (CCK-8), brand: Targetmol, article number: C0005 • Multifunctional microplate reader, POLARstar Omega, brand: BMG LABTECH • 3. […] 10 μL of the compound diluted in gradient was added to the cell plate to give final concentrations of the compounds as 500, 166.67, 55.56, 18.52, 6.17, 2.06, 0.69, 0.23 and 0.08 nM. • d. […] Test results: The IC50 values of compound DA and compound 1 in the patent application WO2021073498A1 against BaF3 cells expressing EML-4-ALK-L1196M are shown in Table 23.

Series [14] concerns the target Ba/F3 cells expressing EGFR-WT (Homo sapiens, UniProt P00533). Put plainly: Cell anti-proliferation experiment 1, BaF3 EGFR-WT wild-type cell line (CellTiter-Glo). It counts as cell-based. As to conditions: read-out: EGFR-WT IC50.
Protocol: as §6

Chain of Ba/F3 cells expressing EGFR-T790M/Del19 (P00533 with tags, fused parts or gaps DEL746-750/T790M, form open): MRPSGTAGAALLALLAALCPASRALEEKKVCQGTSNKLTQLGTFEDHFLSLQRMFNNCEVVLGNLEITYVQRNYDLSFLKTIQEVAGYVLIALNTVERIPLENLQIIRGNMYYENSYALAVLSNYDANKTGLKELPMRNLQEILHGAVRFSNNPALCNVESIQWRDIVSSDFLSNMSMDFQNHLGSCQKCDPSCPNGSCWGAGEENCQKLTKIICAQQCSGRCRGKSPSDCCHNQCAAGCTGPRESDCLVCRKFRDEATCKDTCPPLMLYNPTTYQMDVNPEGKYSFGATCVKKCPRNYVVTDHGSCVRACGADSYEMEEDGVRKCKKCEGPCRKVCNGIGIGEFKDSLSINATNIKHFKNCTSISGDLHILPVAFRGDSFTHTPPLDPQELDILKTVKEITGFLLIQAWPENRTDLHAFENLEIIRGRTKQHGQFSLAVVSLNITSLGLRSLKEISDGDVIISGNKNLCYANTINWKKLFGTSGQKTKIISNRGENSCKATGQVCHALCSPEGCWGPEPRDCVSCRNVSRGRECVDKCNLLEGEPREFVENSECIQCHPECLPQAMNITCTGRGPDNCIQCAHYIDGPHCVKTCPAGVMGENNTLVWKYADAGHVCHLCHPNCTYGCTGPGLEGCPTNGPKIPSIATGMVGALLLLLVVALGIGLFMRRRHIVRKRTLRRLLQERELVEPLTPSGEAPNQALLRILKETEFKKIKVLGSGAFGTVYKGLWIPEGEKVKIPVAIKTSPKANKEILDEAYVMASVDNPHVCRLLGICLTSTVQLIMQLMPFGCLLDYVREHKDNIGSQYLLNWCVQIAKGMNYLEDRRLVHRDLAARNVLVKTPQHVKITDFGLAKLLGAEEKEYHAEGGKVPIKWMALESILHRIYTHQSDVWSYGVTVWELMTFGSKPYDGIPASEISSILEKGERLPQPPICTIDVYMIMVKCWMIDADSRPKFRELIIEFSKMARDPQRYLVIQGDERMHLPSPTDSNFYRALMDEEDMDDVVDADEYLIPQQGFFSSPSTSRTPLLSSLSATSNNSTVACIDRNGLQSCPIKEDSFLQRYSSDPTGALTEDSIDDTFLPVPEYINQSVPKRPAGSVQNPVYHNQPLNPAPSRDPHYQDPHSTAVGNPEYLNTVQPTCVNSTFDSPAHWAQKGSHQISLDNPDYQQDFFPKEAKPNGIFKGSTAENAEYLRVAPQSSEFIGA
T2 sequence (Q9UM73 whole entry, change not shown, the tested form may be a part): as the sequence (Q9UM73 whole entry L1196M, the tested form may be a part) above, with M1196L counted along it

As for `COc1cc(N2CCC(N3CCN(C)CC3)CC2)c(C)cc1Nc1ncc(Br)c(Nc2ccc(C)cc2P(C)(C)=O)n1` [Compound DA, (2-((5-Bromo-2-((2-methoxy-5-methyl-4-(4-(4-methylpiperazin-1-yl)piperidin-1-yl)phenyl)amino)pyrimidin-4-yl)amino)-5-methylphenyl)dimethylphosphorus oxide], the GI50 in series [1] is 48.4 nM; in series [2], 15.6 nM; in series [3] it was 12.8 nM; in series [4], 13.1 nM; in [5], 64.1 nM; in [6], 32.6 nM. The GI50 in series [8] amounted to 48.1 nM; in series [9] it was 16.5 nM; in series [10] it was 8 nM; in [11], 6.5 nM; in [12] it was 22.5 nM; in series [13] (CCK-8, first test, read-out: IC50 in the first test), 15.1 nM. In addition, the GI50 stood at 10.4 nM in series [13] (CCK-8, second test, read-out: IC50 in the second test) and 1260 nM in series [14]. Also, the Hygroscopicity entry in series [7] (class by weight gain after 24 h) is recorded as “Hygroscopic (the weight gain by hygroscopy is less than 15% but not less than 2%)”. Moreover, the “Weight gain % after 24 h” value in series [7] (hygroscopicity test, 24 h) is on record as 3.78%. Also, the “Solubility for 24 h” value in “Solubility test” came out at 2110 µg/mL.
